Test results published in US7273964B1, “Non-human transgenic animals for the study of neurodegenerative syndromes” (Scuola Internazionale Superiore Di Studi Avanzati, priority 1999, dated 2007).
Entries after “also recorded” stand apart in the source; their conditions may differ.

Tests used:
[1] = tested on: anti-NGF mice; experiment: AT8 (phosphorylated tau) immunohistochemistry in entorhinal cortex; type: in vivo, mouse
Method: (§1) Peptide 18 treatment. Prior to the injections, phages carrying the peptide 18 or a peptide raised against NT-3 (negative control) were amplified by infecting 2.5 ml of an overnight colture of DH5alpha F′ bacteria with 5 ml of phage supernatant in 1 liter of 2TY. After an overnight incubation at 30° C., bacteria were removed by centrifugation at 6000 rpm for 20 min at 4° C. Phage particles were precipitated by adding 1 volume of PEG/NaCl (20% PEG6000, 2.5 M NaCl) to 5 volumes of the supernatant. After mixing, the solution was left stand overnight at 4° C. and spinned at […] for 30 min. The pellet was resuspended in 40 ml of […], kept at 65° C. and then spun for 5 min at 11000 rpm.
One volume of PEG/NaCl was mixed to 5 volumes of the phage containing supernatant and incubated for 2 hrs at 4° C. After spinning at 11000 rpm for 5 min., the pellet was resuspended in PBS, spun again to remove cell debris and filtered through a 0.22 μm sterile filter. The phage suspension was then titred by infecting 100 μl of an overnight colture of DH5α F′, mixed with LB top agar and plated on LB plates. Phages carrying the carrying the peptide 18 or a peptide binder of anti-NT-3 (10^9–10^12 pfu/μl) were injected in both lateral ventricles. Phages were injected at postnatal day 53 (P53) and mice were killed 1 week after the injection. […]

[2] = tested on: αD11 antibody; experiment: Phage ELISA assay; type: binding; conditions: phages selected against αD11
Method: Phage ELISA assay. Ninety-six well plates were coated with 100 μl of rat anti-pill monoclonal antibody (57D1, gift by P. Delmastro) diluted in coating buffer (1 μg/ml 50 mM carbonate buffer pH 9.6) and incubated overnight at 4° C. Palts were washed in PBST and blocked in 5% milk/PBST for 1 h at 37° C. on a rocking platform. After 1 brief wash, a mixture of cleared phage supernatant (50 μl) and 50 μl of 5% milk/PBST was added and incubated for 1 h at 37° C. The plates were washed and 100 μl of αD11 antibody dilution (1 μg/ml in 5% milk/PBS) were added and left overnight at 4° C. After washing, an alkaline phosphatase conjugated anti-mouse antibody was added and left at 4° C. for 4 hrs. The reaction was developed by adding 200 μl of the substrate solution (10% dietanolamine, 5 mM MgCl2 pH 9.6) for 2 min followed by an incubation at 37° C. for 1 h in 100 μl of developing solution (1 mg/ml NTB in 10% dietanolamine, 5 mM MgCl2, pH 9.6).
Positive phage clones were analyzed by the single strand DNA sequencing. The positive phage clones were sequenced and re-tested using dot blot experiments towards the αD11 antibody. At least twenty were analyzed.

[3] = tested on: free NGF; experiment: Determination of free NGF by ELISA; type: in vivo, mouse
Method: Determination of free NGF. The levels of free NGF (i.e. NGF not bound to the transgenic antibodies) in the different tissues was determined by an ELISA assay. This assay exploits the property of αD11 antibody to recognize NGF in a two-site ELISA format 16. Samples of blood serum or of tissue extracts (derived as in Molnar et al., 1998) were added to wells coated with mAb αD11 (coating concentration of […]). After incubation for 2 hours at r.t. and extensive washing with PBS-0.05% Tween 20, followed by PBS, free NGF, not engaged with transgenic αD11, was detected using an affinity-purified rabbit anti-NGF polyclonal antiserum.

[4] = tested on: anti-NGF mice; experiment: Number of ChAT-positive neurons in the basal forebrain (immunohistochemistry, stereology); type: in vivo, mouse
Method: as §1
One volume of PEG/NaCl was mixed to 5 volumes of the phage containing supernatant and incubated for 2 hrs at 4° C. After spinning at 11000 rpm for 5 min., the pellet was resuspended in PBS, spun again to remove cell debris and filtered through a 0.22 μm sterile filter. The phage suspension was then titred by infecting 100 μl of an overnight colture of DH5α F′, mixed with LB top agar and plated on LB plates. Phages carrying the carrying the peptide 18 or a peptide binder of anti-NT-3 (10^9–10^12 pfu/μl) were injected in both lateral ventricles. Phages were injected at postnatal day 53 (P53) and mice were killed 1 week after the injection. For the injection, mice were anaesthetised with 2,2,2-Tribromoethanol (0.2 ml/10 g body weight of a 1.2% solution). One μl of phage suspension was injected using a 17 gauge needle connected to a 10 μl Hamilton by a polyethylene cannula, 1 mm lateral and 1 mm anterior to Bregma. After the injection, animals were treated with ampicillin (1 mg/kg) every day, in order to prevent any bacterial infection. Experiment were performed three times for a total number of animals equal to 14 for each group of treatment.
L-thyroxine treatment. […]
Quantitative stereology. The volume of basal forebrain and the number of BFCNs was evaluated in 9 anti-NGF transgenic mice and 8 transgenic controls by using a stereological approach (Ruberti, 2000).

[5] = tested on: visual cortex slices of anti-NGF mice; experiment: Long Term Potentiation (LTP) in visual cortex slices, electrophysiological recordings; parameters: species or system mouse; conditions: 12 µg/animal/day for 4 weeks
Method: Visual cortex slices preparation and electrophysiological recordings. Postsynaptic field potentials were recorded in […] in vitro slices containing visual cortex, following previously described methods (Kirkwood and Bear, 1994). Anti-NGF and transgenic control mice were deeply anesthetized with urethane and then decapitated. The brain was rapidly removed and visual cortex slices (400 μm) prepared and superfused in a submerged recording chamber at 33° C. with gassed artificial cerebrospinal fluid (aCSF) at a rate of 4 ml/min.
The amplitude of the maximum negative field potential in layer 2/3 was used as a measure of the evoked population excitatory current. LTP was induced by 3 trains of high frequency stimulation (HFS, 100 Hz, 1 s). Experiments were performed at different postnatal ages 6 months, when the functional maturation of the visual cortex is completed. Acetylcholine dependence of LTP was investigated by locally delivering through the recording pipette. […] The magnitude of both LTP was measured starting 30 min after the end of the corresponding conditioning protocol. Data for each experimental group were pooled and expressed as percentage change from control baseline, PCCB±S.E.M. Statistical comparison was done by applying a t-test and Mann-Whitney Rank Sum Test between baseline and LTP mean values.

[6] = tested on: gastrocnemius muscle of anti-NGF mice; experiment: Reversibility of the muscular dystrophy in anti-NGF mice by NGF local administration; type: in vivo, mouse; conditions: 45 day old anti-NGF mice, 7, 15 and 30 days after injection
Method: All the experiments were carried out on 45 day old mice, when the serum level of the anti-NGF antibody is still not at the highest level (observed 60 days after the birth). The NGF was administered locally by different methods: (a) by intramuscular injection of NGF, (b) by intramuscular injection of a viral recombinant vector (adenovirus) encoding for NGF cDNA or (c) by the implant of NGF secreting fibroblasts. All the administration routes included the injection or implant in the gastrocnemius muscle, one of the skeletal muscles affected by muscular dystrophy. The injections and implants were carried out on the right leg, while the gastrocnemius muscle of the left leg was used as control. A) NGF was injected as pellet, consisting of diazocellulose mixed NGF in borate buffer at pH 8.0 for 72 hours and following neutralisation by glycine saturated solution (Hendry, 1982). This method allows the exact localisation and slow release of this neurotrophin. Different NGF concentrations were used, comprised in the range from […] and 2 mg for each animal. […]
To verify the effect of the NGF administration the animals were sacrificed 7, 15 and 30 days after the injection. The injected and contralateral muscles were collected and analysed by histological and immunohistochemical techniques to verify the attenuation of the dystrophy and the restoration of usual innervation.

[7] = tested on: anti-NGF mice; experiment: Restoration of the cholinergic phenotype in the basal forebrain of anti-NGF mice by NGF (minipump or NGF-secreting fibroblasts, lateral ventricle); type: in vivo, mouse; conditions: 2 months-old anti-NGF mice; NGF into lateral ventricle
Method: The restoration of the cholinergic phenotype in the basal forebrain was achieved by two different approaches. In a first set of experiments, NGF was delivered using slow releasing minipumps (Alzet, USA) A rubber capillary tube was inserted in the lateral ventricle and then connected by means of an osmotic minipump to a <> of the subcutaneous layer. This pump was filled by NGF (30–100 μg) diluted with Ringer-Locke physiological saline. Experiments were performed in 2 months-old transgenic mice and controls.
In another set of experiments, animals of the same age of previous ones were treated by an implant of fibroblasts genetically modified to secrete NGF. The fibroblasts were injected in the lateral ventricle at a 2×10^5 cells/μl concentration. The injection volume was 1.5 μl/animal. This second method allowed to verify, by ELISA, the constancy of NGF production over 4 weeks after the implantation.

[8] = phage injected intraventricularly
[9] = intraperitoneal, daily from P45 to P62
[10] = intraperitoneal, 10 μg daily from P45 to P62

**Q.** Which results are given for RGSRHDL [peptide 18]?
**A.** AT8 labeling (hyperphosphorylated tau) in the somatic compartment of neurons of the entorhinal cortex ([1]; phage injected intraventricularly at P53): not paralleled by the disappearance of AT8 labeling; also recorded: decreases the expression in the soma; binding activity of phage clone to αD11 [2]: stronger binding activity; free NGF in blood serum and submandibular gland [3, 8]: equal to animals treated with the non related peptide binder of anti-NT-3; free NGF in brain [3, 8]: increase only at the level basal forebrain; number of ChAT positive neurons in the basal forebrain ([4]; phage injected in both lateral ventricles at P53, killed 1 week later): restored

**Q.** N[C@@H](Cc1cc(I)c(Oc2cc(I)c(O)c(I)c2)c(I)c1)C(=O)O [LT4, L-thyroxine, reference compound] was tested. Which “AT8 labeling in the somatic compartment of neurons of the entorhinal cortex” value [1, 9] did it give?
**A.** disappearance of AT8 labeling

**Q.** And the “rescue of synaptic plasticity (LTP)” value [5]?
**A.** only a mild rescue

**Q.** What about the “free NGF in brain, blood serum and submandibular gland, compared with transgenic control” value [3, 9] of the same compound?
**A.** reached almost the levels detectable in transgenic control animals

**Q.** And the “free NGF in brain, blood serum and submandibular gland, compared with vehicle” value [3, 9]?
**A.** higher than that detected in animals treated with vehicle

**Q.** And the “number of ChAT-positive neurons in the basal forebrain, compared with transgenic control” value [4, 10]?
**A.** equal to that observed in transgenic control animals

**Q.** What about the “number of ChAT-positive neurons, increase over not-treated or vehicle-treated anti-NGF mice” value [4, 10] of the same compound?
**A.** 40%

**Q.** “NGF: Nerve Growth Factor, neurotrophin, given as pellet, adenoviral cDNA vector, minipump infusion or via NGF-secreting fibroblasts” was tested. Which “muscle fibre morphology and cholinergic and peptidergic innervation” value [6] did it give?
**A.** re-assumed an usual appearance

**Q.** And the “ChAT expression in nuclei of the basal forebrain and behaviour (cholinergic phenotype)” value [7]?
**A.** phenotype reversibility to be observed
